The text below walks through data of PubChem BioAssay AID1645863 (Buhrlage Lab, Dana-Farber Cancer Institute and Novartis …, 2021).

For orientation: IC50 means the concentration that gives 50% inhibition.

Active and inactive are the calls of the source. How the calls were made is not given here.

Ubiquitin carboxyl-terminal hydrolase 10 (Homo sapiens), sequence (Q14694 whole entry, looked up): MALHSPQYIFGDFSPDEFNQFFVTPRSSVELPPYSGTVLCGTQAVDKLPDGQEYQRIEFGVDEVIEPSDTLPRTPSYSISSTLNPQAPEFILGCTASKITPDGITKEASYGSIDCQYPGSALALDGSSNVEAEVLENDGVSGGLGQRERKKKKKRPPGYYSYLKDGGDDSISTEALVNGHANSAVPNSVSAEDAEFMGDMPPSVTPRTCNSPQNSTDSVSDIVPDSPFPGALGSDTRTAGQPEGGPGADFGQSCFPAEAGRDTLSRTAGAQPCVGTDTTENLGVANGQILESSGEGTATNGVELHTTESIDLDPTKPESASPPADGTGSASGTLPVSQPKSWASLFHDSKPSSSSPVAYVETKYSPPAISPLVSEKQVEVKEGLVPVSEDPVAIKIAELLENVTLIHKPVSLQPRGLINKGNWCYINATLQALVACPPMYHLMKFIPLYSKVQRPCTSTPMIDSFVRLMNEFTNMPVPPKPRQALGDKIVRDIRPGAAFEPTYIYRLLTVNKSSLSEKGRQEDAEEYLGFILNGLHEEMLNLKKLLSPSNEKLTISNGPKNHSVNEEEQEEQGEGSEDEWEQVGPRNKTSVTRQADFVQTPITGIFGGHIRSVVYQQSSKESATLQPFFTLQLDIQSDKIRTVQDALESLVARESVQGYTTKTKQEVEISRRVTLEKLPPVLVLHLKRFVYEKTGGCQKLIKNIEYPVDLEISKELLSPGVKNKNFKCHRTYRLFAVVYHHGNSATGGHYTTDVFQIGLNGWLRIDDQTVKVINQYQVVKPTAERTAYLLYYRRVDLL

The assay addresses Ubiquitin carboxyl-terminal hydrolase 10 (Homo sapiens) (UniProt Q14694). Kind of assay: primary hit verification, biochemical, ubiquitin-specific protease 10 deubiquitylase inhibitors, concentration-effect titration (AID 1645863).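 Further: potency values describe inhibition of USP10 cleavage of a fluorogenic ubiquitin substrate.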 The note with it: USP10 deubiquitinase enzymatic assay.
In the case of `COc1ccc([C@H]2Oc3cc(OC)cc(O)c3C(=O)[C@@H]2[C@@H]2C(=O)c3c(O)cc(O)cc3O[C@H]2c2ccc(OC)cc2)cc1`, the IC50 was 18.5 µM.
In the case of `Cc1ccc(Cl)cc1NC(=O)Cn1c(=O)n(CCC(=O)NCc2ccco2)c(=O)c2ccccc21`, the IC50 is 13.1 µM.
In the case of `COC(=O)c1ccc2c(=O)n(CCCCCC(=O)NCc3cccc(Cl)c3)c(=O)[nH]c2c1`, the IC50 is 16 µM.
In the case of `CS(=O)(=O)c1ccc2nc(N(Cc3cccnc3)C(=O)c3ccc4ccccc4c3)sc2c1` it was > 40 µM (inactive); in that of `CC(C)=CCC/C(C)=C/COc1ccc(/C=C2\C(=O)N(O)[C@@H](C)C(=O)N2O)cc1`, 14.5 µM.
For `O=C(c1cccc2ncccc12)N1CCN(c2ccnc3cc(Cl)ccc23)CC1`, the IC50 was > 40 µM (inactive).
On to `Cc1ccc([N+](=O)[O-])cc1S(=O)(=O)Nc1cc2sc(=O)oc2c2ccccc12`, for which the IC50 is > 40 µM (inactive).
Consider `O=C(c1cnc2ccccc2n1)N1CCC(S(=O)(=O)c2ccc(-c3ccco3)cc2)CC1`, for which the IC50 was > 40 µM (inactive).
In the case of `O=S1(=O)CCN(Cc2cccnc2)c2c(F)nc(N3CCOCC3)c(F)c21` it was > 40 µM (inactive); in that of `O=C(CSc1nc(=O)n(Cc2ccncc2)c2c1CCC2)NCCc1ccccc1`, > 40 µM (inactive).
`COCCn1c(=O)[nH]c2cc(C(=O)NCCNc3ccc([N+](=O)[O-])cc3C#N)ccc2c1=O`: the IC50 was 15.5 µM.
`Cc1ccc2[nH]c(=O)c(CN(CC3COCCO3)S(=O)(=O)c3ccc(F)cc3)cc2c1` (stereo unspecified): the IC50 is > 40 µM (inactive).
As for `COCCCn1c(C(=O)NCc2ccccc2)cc2c(=O)n3ccccc3nc21`, the IC50 was > 40 µM (inactive).
On to `O=C(NC1(O)C(=O)c2ccccc2C1=O)c1ccc(-c2csnn2)cc1`, for which the IC50 is 9.45 µM.
In the case of `Cc1ccc(-n2nc(C)c3c2NC(=O)CC3C(=O)c2cc3ccccc3o2)cc1` (stereo unspecified) it was > 40 µM (inactive); in that of `Cc1cccc(N2C(=O)/C(=C\c3cc(C#N)n(C)c3C)c3ccccc3C2=O)c1`, 34.1 µM; in that of `CCN(Cc1ccccc1)C(=O)C1CCN(Cc2ccc(OC)c(OC)c2OC)CC1`, > 40 µM (inactive).
As to `CCOc1ccc(NC(=O)Cn2c(=O)n(CCCCCC(=O)NCc3ccc(F)cc3)c(=O)c3sccc32)cc1`, the concentration for half-maximal inhibition (IC50) is 17.7 µM.
In the case of `CCc1cc(=O)oc2c(C)c(OCC(=O)NCc3ccccn3)ccc12`, the IC50 was > 40 µM (inactive).
Turning to `COc1cccc(CNC(=O)c2nnn(CC(=O)Nc3cc(C)ccc3C)c2N)c1`, the IC50 is 29.9 µM.
For `O=C(Nc1ccccc1Cl)c1cc(-c2ccncc2)n[nH]1`, the IC50 was > 40 µM (inactive).
In the case of `O=C(NCc1ccc2c(c1)OCO2)c1cn(-c2cccc(Cl)c2)nn1` it was 33 µM; in that of `Cc1cccc(C(=O)Nc2cccc(SC(C(=O)Nc3ccc(O)c(C(=O)O)c3)c3ccccc3)c2)c1` (stereo unspecified), > 40 µM (inactive); in that of `CCCn1cc(C(=O)N2CCC3(CC2)CC2(CO3)Nc3ccccc3-n3cccc32)c(C)n1` (stereo unspecified), > 40 µM (inactive).
In the case of `O=C(Nc1cccc(-c2nc3ncccc3o2)c1)c1ccc([N+](=O)[O-])cc1` it was > 40 µM (inactive); in that of `COc1ccc(C2NC(=O)NC(C)=C2C(=O)OCC2CCCCC2)cc1OC` (stereo unspecified), > 40 µM (inactive).
As for `COc1ccc(S(=O)(=O)NC2CC(=O)N(c3ccc(Cl)cc3)C2)cc1` (stereo unspecified), the IC50 was > 40 µM (inactive).
In the case of `CC(C)n1cc(CN2CCC(C(=O)Nc3cccc(-c4cccc(Cl)c4)c3)CC2)cn1` it was > 40 µM (inactive); in that of `O=C(NC1CCCCC1)C(c1ccc(F)cc1)N(C(=O)C1COc2ccccc2O1)c1ccc2c(c1)OCO2` (stereo unspecified), > 40 µM (inactive); in that of `COc1ccccc1N(CC(=O)N1c2ccccc2CC1C)S(=O)(=O)c1ccc(F)cc1` (stereo unspecified), > 40 µM (inactive).
Turning to `Cn1c(CCNC(=O)c2[nH]nc3c2CCc2ccccc2-3)nc2ccccc21`, the half-maximal inhibitory concentration (IC50) is 36.1 µM.
In the case of `COc1ccc(OC)c(-c2cn3ccn(-c4ccc(F)c(Cl)c4)c(=O)c3n2)c1`, the IC50 is 18.7 µM.
On to `O=C(/C=C/c1c(F)cccc1Cl)N1CCc2ccccc2C1`, for which the IC50 is > 40 µM (inactive).
In the case of `CC(=O)c1cccc(NC(=O)COC(=O)c2sc3cc(F)ccc3c2Cl)c1` it was > 40 µM (inactive).
As for `COc1cc(C2CC(=O)c3c([nH]c(C(=O)OCCOc4ccccc4)c3C)C2)cc(OC)c1OC` (stereo unspecified), the IC50 was > 40 µM (inactive).
In the case of `COc1ccc(-c2nc(-c3cn(-c4ccccc4)nn3)no2)c(OC)c1`, the IC50 was > 40 µM (inactive).
As for `CCOc1ccc2c(c1)c(=O)c(C(=O)c1ccc(C)cc1)cn2CC(=O)Nc1ccc(C)cc1`, the IC50 is > 40 µM (inactive).
Consider `O=C(CCCCn1c(=O)[nH]c2ccccc2c1=O)Nc1cccc(Cl)c1`, for which the IC50 was > 40 µM (inactive).
On to `CCOc1ccc(NS(=O)(=O)c2ccc(NC(=O)Nc3ccccc3)cc2)cc1`, for which the IC50 is > 40 µM (inactive).
Consider `O=C1CC(c2ccccc2)n2ncnc2N1` (stereo unspecified), for which the IC50 was > 40 µM (inactive).
In the case of `Cc1cc(N2CCN(c3ncccn3)CC2)nc2ccc(NC(=O)c3ccncc3)cc12`, the IC50 is > 40 µM (inactive).
In the case of `COc1ccc(NC(=O)Cn2c(=O)n(-c3ccc(CC(=O)NCc4ccco4)cc3)c(=O)c3ccccc32)cc1Cl` it was 15.1 µM; in that of `CCn1c(SCC(=O)c2c(N)n(CC(C)C)c(=O)n(C)c2=O)nnc1-c1ccccc1`, > 40 µM (inactive).
In the case of `O=C(Nc1ccccc1C(F)(F)F)c1cccc(S(=O)(=O)Nc2cc(C(F)(F)F)ccc2Cl)c1` it was > 40 µM (inactive); in that of `CCOc1ccc(-n2ccnc(SCC(=O)Nc3ccccc3F)c2=O)cc1`, 39.1 µM.
For `Nc1ncnc2c1ncn2[C@@H]1O[C@H](CO)C[C@@H]1O`, the IC50 is 24.9 µM.
In the case of `O=C(Cn1c(=O)n(-c2ccc(CC(=O)NC3CCCC3)cc2)c(=O)c2ccccc21)Nc1ccccc1[N+](=O)[O-]` it was 19.9 µM.
In the case of `COc1ccc(NC(=O)Cn2cc(C(=O)c3ccc(F)cc3)c(=O)c3cc(C)ccc32)cc1OC` it was > 40 µM (inactive); in that of `Cc1ccc2[nH]cc(S(=O)(=O)c3cc(F)cc(F)c3)c(=O)c2c1`, > 40 µM (inactive).
Regarding `O=C1NC(=O)/C(=C/c2ccc(OC(=O)c3ccc(Cl)cc3Cl)cc2)N1`, the IC50 is 22.1 µM.
`Cc1c(C#N)c2ccccc2n1CC(=O)NCc1ccc2c(c1)OCO2`: the IC50 was > 40 µM (inactive).
As for `COc1c(C)c(C(O)C(C)O)c2[nH]c3ccc(CC=C(C)C)cc3c2c1O` (stereo unspecified), the IC50 is > 40 µM (inactive).
Turning to `CC/C=C\C/C=C\C/C=C\CCCCCCCC(=O)O`, the concentration for half-maximal inhibition (IC50) was 11.9 µM.
In the case of `COc1ccc(-c2cc3c(=O)n(CC(=O)NCc4ccccc4)ncn3n2)cc1` it was > 40 µM (inactive).
Turning to `CCCn1c(=O)c(-c2ccc(C(=O)NCc3ccc(OC)cc3)cc2)nc2cccnc21`, the IC50 is > 40 µM (inactive).
Take `O=C(Nc1ccc(NC(=O)c2ccccc2O)cc1)Nc1ccc(OCc2ccccc2)cc1`: the IC50 is > 40 µM (inactive).
For the molecule `COCCCNC(=O)c1ccc(Cn2c(=O)c3ccccc3n(CC(=O)Nc3ccc(OC)cc3)c2=O)cc1`, the IC50 was > 40 µM (inactive).
Take `Cc1ccc(N2CC(c3nnc(NC(=O)CCc4ccccc4)s3)CC2=O)cc1` (stereo unspecified): the IC50 is > 40 µM (inactive).
On to `COc1ccc(NC2c3ccccc3C(=O)N2c2ccccn2)cc1` (stereo unspecified), for which the IC50 is > 40 µM (inactive).
As to `COc1ccccc1Nc1ncc(C(=O)NCCc2ccc(Cl)cc2)c2ccccc12`, the IC50 is > 40 µM (inactive).
`COc1cccc(C(=O)Nc2ccc(SC(C)C(=O)Nc3ccc(C(N)=O)cc3)cc2)c1` (stereo unspecified): the IC50 was 24.9 µM.
As to `Cc1cc(C)c(C#N)c(N2CCN(CCOc3ccc(Cl)cc3)CC2)n1`, the IC50 was > 40 µM (inactive).
Regarding `COc1ccc(C2/C(=C(\O)c3ccccc3)C(=O)C(=O)N2c2nc3ccc(F)cc3s2)cc1` (stereo unspecified), the IC50 is 8.94 µM.
As for `COc1ccc(OC)c(NC2=NS(=O)(=O)C(c3cccc(Br)c3)=C2C)c1`, the IC50 is > 40 µM (inactive).
In the case of `CN(C)S(=O)(=O)c1ccc(NC(=O)CN2CCCc3ccccc32)cc1`, the IC50 is > 40 µM (inactive).
In the case of `COc1ccc(NS(=O)(=O)c2cc(NC(=O)/C=C/c3ccco3)ccc2N2CCCC2)cc1` it was > 40 µM (inactive); in that of `CC1=C(C)C(N(c2ccccc2)c2ccccc2)N(CCC(C)C)C1=O` (stereo unspecified), > 40 µM (inactive); in that of `Cc1cccc(OCC2=NN3C(=N)/C(=C\c4cc(C)n(-c5cccc(F)c5)c4C)C(=O)N=C3S2)c1`, > 40 µM (inactive).
Regarding `COc1ccc(-n2c(=O)c3ccc(C(=O)NCCc4ccccc4)cc3n(CC(=O)NCc3ccco3)c2=O)cc1`, the IC50 was > 40 µM (inactive).
As to `Cc1cc(NC(=O)Cn2c(=O)n(Cc3ccco3)c(=O)c3ccc(C(=O)NCCc4ccccc4)cc32)n[nH]1`, the IC50 was 23 µM.
In the case of `Cc1ccc(NC(=O)Nc2nnc(CC(=O)NCc3ccccc3)s2)cc1F` it was > 40 µM (inactive); in that of `CCOc1ccc(CCNC(=O)Cn2c(-c3ccc(F)cc3)cc(C(C)=O)c2C)cc1OCC`, > 40 µM (inactive); in that of `O=C(Cn1c(=O)n(-c2ccc(Cl)cc2)c(=O)c2c3c(sc21)CCCC3)NCC1CCCO1` (stereo unspecified), > 40 µM (inactive).
As for `O=C(Cn1nnc2ccccc21)Nc1nc(-c2ccc3c(c2)CCN3C(=O)c2ccccc2F)cs1`, the IC50 was 34.9 µM.
In the case of `O=C(NCCN1CCOCC1)c1cn2cc(Cl)ccc2n1`, the IC50 was > 40 µM (inactive).
Consider `COc1cc(C)cc2c1C(=O)c1c(cc(O)c(Cl)c1O)C2=O`, for which the half-maximal inhibitory concentration (IC50) was 4.38 µM.
Regarding `O=c1c2ccccc2oc2nc(-c3cccs3)n(-c3ccccc3)c(=O)c12`, the IC50 was 16.6 µM.
In the case of `CC(C)CC(=O)Nc1cc(F)c2nc(N3CCOCC3)ccc2c1` it was > 40 µM (inactive).
In the case of `Cc1ccc2nc(NC(=O)/C=C/c3ccc4c(c3)OCO4)sc2c1`, the IC50 is 15.1 µM.
In the case of `N#Cc1cccc(NC(=O)Cn2cccc2-c2nc(-c3ccccc3)no2)c1` it was > 40 µM (inactive).
In the case of `COc1ccc(-n2ccc(=O)c(-c3nc(-c4ccc(F)cc4)no3)n2)cc1` it was > 40 µM (inactive).
